Experiments:
[1] = test system: Hepatitis B virus; assay: Antiviral activity against Hepatitis B virus infected human HepG2.2.15 cells assessed as HBsAg secretion at 100 […] after 9 days by ELISA; format: functional; conditions: HepG2 2.2.15, 216 h
[2] = test system: Hepatitis B virus; assay: Antiviral activity against Hepatitis B virus infected human HepG2.2.15 cells assessed as HBsAg secretion at 25 […] after 9 days by ELISA; format: functional; conditions: HepG2 2.2.15, 216 h
[3] = test system: Hepatitis B virus; assay: Antiviral activity against Hepatitis B virus infected human HepG2.2.15 cells assessed as HBsAg secretion at 50 […] after 9 days by ELISA; format: functional; conditions: HepG2 2.2.15, 216 h
[4] = test system: Hepatitis B virus; assay: Antiviral activity against Hepatitis B virus infected human HepG2.2.15 cells assessed as HBeAg secretion at 100 […] after 9 days by ELISA; format: functional; conditions: HepG2 2.2.15, 216 h
[5] = test system: Hepatitis B virus; assay: Antiviral activity against Hepatitis B virus infected human HepG2.2.15 cells assessed as HBeAg secretion at 50 […] after 9 days by ELISA; format: functional; conditions: HepG2 2.2.15, 216 h
[6] = test system: Hepatitis B virus; assay: Antiviral activity against Hepatitis B virus infected human HepG2.2.15 cells assessed as HBeAg secretion at 25 […] after 9 days by ELISA; format: functional; conditions: HepG2 2.2.15, 216 h
[7] = Cytotoxicity against human HepG2(2.2.15) cells at 200 ug/mL by MTT assay; format: cell-based; conditions: read-out: GI
[8] = test system: Hepatitis B virus; assay: Antiviral activity against Hepatitis B virus infected human HepG2.2.15 cells assessed as HBsAg secretion at 200 […] after 9 days by ELISA; format: functional; conditions: HepG2 2.2.15, 216 h
[9] = test system: Hepatitis B virus; assay: Antiviral activity against Hepatitis B virus infected human HepG2.2.15 cells assessed as HBeAg secretion at 200 […] after 9 days by ELISA; format: functional; conditions: HepG2 2.2.15, 216 h
[10] = Cytotoxicity against human HepG2(2.2.15) cells at 100 ug/mL by MTT assay; format: cell-based; conditions: read-out: GI
[11] = Cytotoxicity against human HepG2(2.2.15) cells at 50 ug/mL by MTT assay; format: cell-based; conditions: read-out: GI

Question: Which inhibition in vivo at 0.1 mg/kg [1] does the source give for `COc1cc2c(c(OC)c1OC)-c1c(cc3c(c1O)OCO3)C[C@H](C)[C@@](C)(O)[C@H]2OC(C)=O` [SCHISANWILSONIN F] here?
Answer: Its inhibition in vivo at 0.1 mg/kg is 0%.

Question: And the inhibition in vivo at 0.025 mg/kg [2]?
Answer: Its inhibition in vivo at 0.025 mg/kg is 0%.

Question: And the inhibition in vivo at 0.05 mg/kg [3]?
Answer: The inhibition in vivo at 0.05 mg/kg was 0%.

Question: And the inhibition in vivo at 0.1 mg/kg [4]?
Answer: Its inhibition in vivo at 0.1 mg/kg is 9.3%.

Question: What about the inhibition in vivo at 0.05 mg/kg [5] of the same molecule?
Answer: The inhibition in vivo at 0.05 mg/kg was 6.7%.

Question: And the inhibition in vivo at 0.025 mg/kg [6]?
Answer: The inhibition in vivo at 0.025 mg/kg was 5.5%.

Question: What about the inhibition at 200 ug/mL [7] of the same molecule?
Answer: Its inhibition at 200 ug/mL is at least 25%.

Question: What does the source list for `C/C=C(\C)C(=O)O[C@H]1c2cc(OC)c(OC)c(OC)c2-c2c(cc(O)c(OC)c2O)C[C@H](C)[C@@]1(C)O` [SCHISANWILSONIN D]?
Answer: inhibition in vivo at 0.1 mg/kg [1]: 28.8%; inhibition in vivo at 0.025 mg/kg [2]: 12.5%; inhibition in vivo at 0.05 mg/kg [3]: 19.5%; inhibition in vivo at 0.1 mg/kg [4]: 21.6%; inhibition in vivo at 0.05 mg/kg [5]: 16.5%; inhibition in vivo at 0.025 mg/kg [6]: 6.2%; inhibition at 200 ug/mL [7]: ≥ 25%

Question: Which inhibition in vivo at 0.2 mg/kg [8] does the source give for `COc1cc2c(c(OC)c1OC)-c1c(cc(OC)c(OC)c1OC)C[C@H](C)[C@H](C)C2` [SCHISANDRIN A] here?
Answer: The inhibition in vivo at 0.2 mg/kg was 50.3%.

Question: And the inhibition in vivo at 0.1 mg/kg [1]?
Answer: Its inhibition in vivo at 0.1 mg/kg is 30.9%.

Question: What about the inhibition in vivo at 0.025 mg/kg [2] of the same molecule?
Answer: Its inhibition in vivo at 0.025 mg/kg is 0%.

Question: And the inhibition in vivo at 0.05 mg/kg [3]?
Answer: The inhibition in vivo at 0.05 mg/kg was 8.8%.

Question: What about the inhibition in vivo at 0.1 mg/kg [4] of the same molecule?
Answer: The inhibition in vivo at 0.1 mg/kg was 11.9%.

Question: And the inhibition in vivo at 0.2 mg/kg [9]?
Answer: Its inhibition in vivo at 0.2 mg/kg is 15.9%.

Question: And the inhibition in vivo at 0.05 mg/kg [5]?
Answer: Its inhibition in vivo at 0.05 mg/kg is 0%.

Question: What about the inhibition in vivo at 0.025 mg/kg [6] of the same molecule?
Answer: Its inhibition in vivo at 0.025 mg/kg is 0%.

Question: For `C/C=C(/C)C(=O)O[C@H]1c2cc(OC)c(OC)c(OC)c2-c2c(cc3c(c2O)OCO3)C[C@H](C)[C@@]1(C)O` [SCHISANWILSONIN A], which inhibition in vivo at 0.025 mg/kg [2] is on record?
Answer: The inhibition in vivo at 0.025 mg/kg was 0%.

Question: And the inhibition in vivo at 0.05 mg/kg [3]?
Answer: Its inhibition in vivo at 0.05 mg/kg is 5.3%.

Question: And the inhibition in vivo at 0.05 mg/kg [5]?
Answer: The inhibition in vivo at 0.05 mg/kg was 14%.

Question: And the inhibition in vivo at 0.025 mg/kg [6]?
Answer: The inhibition in vivo at 0.025 mg/kg was 0%.

Question: What about the inhibition at 200 ug/mL [7] of the same molecule?
Answer: Its inhibition at 200 ug/mL is at least 25%.

Question: And the inhibition at 100 ug/mL [10]?
Answer: Its inhibition at 100 ug/mL is at least 25%.

Question: Which results are given for `Nc1ccn([C@@H]2CS[C@H](CO)O2)c(=O)n1` [LAMIVUDINE]?
Answer: inhibition in vivo at 0.2 mg/kg [8]: 28.6%; inhibition in vivo at 0.2 mg/kg [9]: 34.5%

Question: Which results are given for `COc1cc2c(c(OC)c1OC)-c1c(cc3c(c1O)OCO3)C[C@H](C)[C@@](C)(O)[C@H]2OC(=O)c1ccccc1` [SCHISANWILSONIN C]?
Answer: inhibition in vivo at 0.025 mg/kg [2]: 0%; inhibition in vivo at 0.05 mg/kg [3]: 0%; inhibition in vivo at 0.05 mg/kg [5]: 11.7%; inhibition in vivo at 0.025 mg/kg [6]: 11.6%; inhibition at 200 ug/mL [7]: ≥ 25%; inhibition at 100 ug/mL [10]: ≥ 25%

Question: Which inhibition in vivo at 0.2 mg/kg [8] does the source give for `COc1cc2c(c(O)c1OC)-c1c(cc(OC)c(OC)c1OC)C[C@](C)(O)[C@@H](C)C2` [GOMISIN H] here?
Answer: Its inhibition in vivo at 0.2 mg/kg is 11.6%.

Question: And the inhibition in vivo at 0.1 mg/kg [1]?
Answer: Its inhibition in vivo at 0.1 mg/kg is 3.7%.

Question: And the inhibition in vivo at 0.025 mg/kg [2]?
Answer: Its inhibition in vivo at 0.025 mg/kg is 0%.

Question: What about the inhibition in vivo at 0.05 mg/kg [3] of the same molecule?
Answer: The inhibition in vivo at 0.05 mg/kg was 0%.

Question: And the inhibition in vivo at 0.1 mg/kg [4]?
Answer: Its inhibition in vivo at 0.1 mg/kg is 0%.

Question: What about the inhibition in vivo at 0.2 mg/kg [9] of the same molecule?
Answer: The inhibition in vivo at 0.2 mg/kg was 1.6%.

Question: What about the inhibition in vivo at 0.05 mg/kg [5] of the same molecule?
Answer: Its inhibition in vivo at 0.05 mg/kg is 0%.

Question: What about the inhibition in vivo at 0.025 mg/kg [6] of the same molecule?
Answer: Its inhibition in vivo at 0.025 mg/kg is 0%.

Question: What does the source list for `COc1cc2c(c(OC)c1OC)-c1c(cc3c(c1O)OCO3)C[C@H](C)[C@@](C)(O)[C@H]2OC(=O)C(C)C` [SCHISANWILSONIN E]?
Answer: inhibition in vivo at 0.1 mg/kg [1]: 0%; inhibition in vivo at 0.025 mg/kg [2]: 0%; inhibition in vivo at 0.05 mg/kg [3]: 0%; inhibition in vivo at 0.1 mg/kg [4]: 2%; inhibition in vivo at 0.05 mg/kg [5]: 0%; inhibition in vivo at 0.025 mg/kg [6]: 0%; inhibition at 200 ug/mL [7]: ≥ 25%

Question: Which inhibition in vivo at 0.2 mg/kg [8] does the source give for `COc1cc2c(c(OC)c1OC)-c1c(cc(O)c(OC)c1O)C[C@H](C)[C@@](C)(O)[C@H]2OC(=O)c1ccccc1` [SCHISANWILSONIN G] here?
Answer: The inhibition in vivo at 0.2 mg/kg was 0%.

Question: And the inhibition in vivo at 0.1 mg/kg [1]?
Answer: Its inhibition in vivo at 0.1 mg/kg is 0%.

Question: What about the inhibition in vivo at 0.025 mg/kg [2] of the same molecule?
Answer: The inhibition in vivo at 0.025 mg/kg was 0%.

Question: What about the inhibition in vivo at 0.05 mg/kg [3] of the same molecule?
Answer: Its inhibition in vivo at 0.05 mg/kg is 0%.

Question: What about the inhibition in vivo at 0.1 mg/kg [4] of the same molecule?
Answer: Its inhibition in vivo at 0.1 mg/kg is 3.4%.

Question: And the inhibition in vivo at 0.2 mg/kg [9]?
Answer: The inhibition in vivo at 0.2 mg/kg was 5.6%.

Question: What about the inhibition in vivo at 0.05 mg/kg [5] of the same molecule?
Answer: The inhibition in vivo at 0.05 mg/kg was 1.6%.

Question: What about the inhibition in vivo at 0.025 mg/kg [6] of the same molecule?
Answer: The inhibition in vivo at 0.025 mg/kg was 0%.

Question: With `COc1cc2c(c(O)c1OC)-c1c(cc(OC)c(OC)c1OC)C[C@@H](C)[C@@H](C)C2` [SCHISANHENOL] as the molecule, how does the inhibition in vivo at 0.025 mg/kg [2] read?
Answer: The inhibition in vivo at 0.025 mg/kg was 45%.

Question: What about the inhibition in vivo at 0.025 mg/kg [6] of the same molecule?
Answer: Its inhibition in vivo at 0.025 mg/kg is 0%.

Question: And the inhibition at 200 ug/mL [7]?
Answer: The inhibition at 200 ug/mL was at least 25%.

Question: And the inhibition at 100 ug/mL [10]?
Answer: The inhibition at 100 ug/mL was at least 25%.

Question: What about the inhibition at 50 ug/mL [11] of the same molecule?
Answer: The inhibition at 50 ug/mL was at least 25%.

Question: Which results are given for `C/C=C(\C)C(=O)O[C@H]1c2cc(OC)c(OC)c(OC)c2-c2c(cc3c(c2O)OCO3)C[C@H](C)[C@@]1(C)O` [SCHISANWILSONIN B]?
Answer: inhibition in vivo at 0.1 mg/kg [1]: 7.4%; inhibition in vivo at 0.025 mg/kg [2]: 0%; inhibition in vivo at 0.05 mg/kg [3]: 0%; inhibition in vivo at 0.1 mg/kg [4]: 18.1%; inhibition in vivo at 0.05 mg/kg [5]: 9.2%; inhibition in vivo at 0.025 mg/kg [6]: 0.6%; inhibition at 200 ug/mL [7]: ≥ 25%
